Measured values as given in patent publication US20090325959A1 (priority 2008, published 2009).

Assays:
GCK = target: T1, GCK (Homo sapiens, UniProt Q12851); assay: Kinase panel screen (KinaseProfiler), GCK; assay type: biochemical
T1 construct: purchased Upstate, Millipore Bioscience Division (KinaseProfiler service)
T1 sequence (Q12851 1-820): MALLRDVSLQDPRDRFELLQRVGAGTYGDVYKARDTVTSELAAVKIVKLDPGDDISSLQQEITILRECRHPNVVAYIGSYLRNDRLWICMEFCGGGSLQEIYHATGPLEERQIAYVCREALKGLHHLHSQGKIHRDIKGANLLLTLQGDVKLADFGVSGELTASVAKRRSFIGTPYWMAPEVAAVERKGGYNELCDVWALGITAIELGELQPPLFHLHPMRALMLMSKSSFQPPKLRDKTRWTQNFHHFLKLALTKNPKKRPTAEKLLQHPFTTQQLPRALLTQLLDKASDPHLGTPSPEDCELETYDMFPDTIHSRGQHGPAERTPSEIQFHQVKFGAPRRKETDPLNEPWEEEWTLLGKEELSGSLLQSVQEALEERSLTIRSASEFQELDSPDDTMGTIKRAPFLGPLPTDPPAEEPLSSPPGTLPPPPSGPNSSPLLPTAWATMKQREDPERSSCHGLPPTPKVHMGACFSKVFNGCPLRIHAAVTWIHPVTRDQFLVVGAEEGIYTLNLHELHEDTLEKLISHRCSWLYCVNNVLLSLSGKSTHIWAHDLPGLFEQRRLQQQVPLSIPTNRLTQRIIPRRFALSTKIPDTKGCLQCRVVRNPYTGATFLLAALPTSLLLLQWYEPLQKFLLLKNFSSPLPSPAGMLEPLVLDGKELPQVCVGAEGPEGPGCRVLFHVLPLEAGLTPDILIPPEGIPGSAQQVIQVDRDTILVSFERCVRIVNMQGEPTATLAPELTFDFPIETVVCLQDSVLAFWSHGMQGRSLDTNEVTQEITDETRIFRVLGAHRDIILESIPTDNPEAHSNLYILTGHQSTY
Experimental: (§1) Compounds of Formulae I and II were examined for activity against a selected panel of kinases using the KinaseProfiler™ enzyme profiling services (Upstate, Millipore Bioscience Division). Percent kinase activity at 10 μM and 1 μM test compound and 10 μM ATP was determined against 40 wild-type recombinant human kinases according to Upstate's standard protocol: ASK1, BTK, CSK, c-RAF, GCK, GSK3β, IKKα, IKKβ, IRAK1, IRAK4, JNK1α1, JNK2α2, JNK3, ERK1, ERK2, MAPKAP-K2, MAPKAP-K3, MEK1, MKK4, MKK6, MKK7β, Mnk2, MSK1, PAK3, PDK1, PRAK, ROCK1, Rsk2, SAPK2a, SAPK2b, SAPK3, SAPK4, SRPK1, SRPK2, Syk, TAK1, TBK1, PI3-Kβ, PI3-Kγ, PI3-Kδ.

IRAK1 = target: T2, IRAK1 (Homo sapiens, UniProt P51617); assay: Kinase panel screen (KinaseProfiler), IRAK1; assay type: biochemical; conditions: 10 μM ATP
T2 construct: purchased Upstate, Millipore Bioscience Division (KinaseProfiler service)
Experimental: as §1

T2 sequence (P51617 whole entry): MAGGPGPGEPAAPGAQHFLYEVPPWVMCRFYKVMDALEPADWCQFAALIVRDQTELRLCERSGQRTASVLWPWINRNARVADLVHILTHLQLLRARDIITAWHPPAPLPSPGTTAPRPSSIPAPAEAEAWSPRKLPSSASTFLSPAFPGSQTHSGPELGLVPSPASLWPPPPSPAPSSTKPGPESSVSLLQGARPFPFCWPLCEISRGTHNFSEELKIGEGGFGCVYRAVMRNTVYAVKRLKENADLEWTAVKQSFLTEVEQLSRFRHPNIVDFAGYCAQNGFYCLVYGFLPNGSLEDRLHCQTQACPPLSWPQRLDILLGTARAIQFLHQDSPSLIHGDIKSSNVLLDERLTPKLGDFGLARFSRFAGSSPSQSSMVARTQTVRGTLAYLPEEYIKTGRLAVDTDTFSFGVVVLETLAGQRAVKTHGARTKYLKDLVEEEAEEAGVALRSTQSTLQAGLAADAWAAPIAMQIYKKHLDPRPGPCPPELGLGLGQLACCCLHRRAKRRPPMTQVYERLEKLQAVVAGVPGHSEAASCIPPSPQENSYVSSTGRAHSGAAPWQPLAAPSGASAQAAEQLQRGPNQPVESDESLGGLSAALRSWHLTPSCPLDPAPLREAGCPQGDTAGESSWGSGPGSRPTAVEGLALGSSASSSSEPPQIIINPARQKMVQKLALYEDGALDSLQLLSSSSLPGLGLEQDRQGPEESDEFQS

NC(=O)Cn1ccc2cc(CN3CC[C@@H](Nc4cccc5cnccc45)C3)ccc21 [Compound 2.059, (R)-2-(5-((3-(isoquinolin-5-ylamino)pyrrolidin-1-yl)methyl)-1H-indol-1-yl)acetamide]
GCK Percent inhibition, 1 μM (GCK): 75%
activity at 10 µM (GCK; 10 μM test compound, 10 μM ATP, read-out: GCK Percent inhibition, 10 μM): 34%
activity at 1 µM (IRAK1; 1 μM test compound, read-out: IRAK1 Percent inhibition, 1 μM): 87%
activity at 10 µM (IRAK1; 10 μM test compound, read-out: IRAK1 Percent inhibition, 10 μM): 30%
